Test results taken from patent publication US7902156B2 (Angiochem Inc., priority 2005, dated 2011).
Read-outs that look alike come from different tables or passages of the source. Residues, ends and D or L forms follow the SMILES beside them. No end group written: not given here.

Experiments:
[1] = tested on: in vitro model of the BBB (co-culture of bovine brain capillary endothelial cells and rat glial cells); assay: First level screening: peptide passage in the in vitro BBB model, Coomassie blue detection; conditions: 90 minutes at 37° C.
[2] = tested on: in vitro model of the BBB (bovine brain capillary endothelial cells); assay: Second level screening: [125I]-peptide passage in the in vitro BBB model (cpm ratios)
Experimental: This BBCEC medium was changed three times a week.
The medium was changed twice a week.
Briefly, the selected peptides were iodinated with standard procedures using iodo-beads from Sigma. Two iodo-beads were used for each protein. […] The iodination for each peptide was initiated by adding 100 μg (80-100 μl) of the bead suspension. […] Fractions of 0.5 ml were collected and the radioactivity in 5 μl of each fraction was measured.
The iodinated peptides were also investigated with the in vitro model of the BBB. […] Results were expressed as cpm ratios.

brain tumor model = conditions: injected alone at the maximal tolerated dose (54 mg/kg); cited from earlier work
[3] = tested on: in vitro BBB model (BBCEC monolayers grown on filters in the presence of astrocytes); assay: Permeability coefficient (Pe) / transcytosis capacity in the in vitro BBB model; format: in vitro ADME, bovine; conditions: third level of selection, peptide at 250 nM
Experimental: At different times, inserts were placed into another well.
Transcytosis capacity of Aprotinin-Paclitaxel conjugate was determined and is reported below in Table 5.

mouse brain = assay: In situ cerebral perfusion with post-perfusion capillary depletion; format: in vivo, mice; conditions: perfusion 5 min; for Volume of distribution, Capillaries % / Volume of distribution, Parenchyma %: share of homogenate; for Volume of distribution, Homogenate: total brain
From the text: The in situ cerebral perfusion (in mice) was used as the fourth level of selection to select the best peptides. This procedure also distinguishes between compounds remaining in the brain vascular compartment from those having crossed the abluminal endothelial membrane to enter the brain parenchyma. Indeed, the technique of post-perfusion capillary depletion allows to measure whether the molecule really crosses the endothelium to enter the brain parenchyma.

[4] = [125I]-peptide, cpm in bottom chamber / total cpm added, filter covered with endothelial cells, 90 minutes at 37° C.

Row | Permeability coefficient (Pe) [3] | Volume of distribution, Capillaries (mouse brain) [ml/100 g] | Volume of distribution, Capillaries % (mouse brain) [%] | Volume of distribution, Homogenate (mouse brain) [ml/100 g] | Compound | Peptide detected in the lower side of the chambers by Coomassie blue staining [1] | further results
1 | – | – | – | – | C[C@@H](O)[C@H](N)C(=O)N[C@@H](Cc1ccccc1)C(=O)N[C@@H](Cc1ccccc1)C(=O)N[C@@H](Cc1ccc(O)cc1)C(=O)NCC(=O)NCC(=O)N[C@@H](CO)C(=O)N[C@@H](CCCNC(=N)N)C(=O)NCC(=O)N[C@@H](CCCCN)C(=O)N[C@@H](CCCNC(=N)N)C(=O)N[C@@H](CC(N)=O)C(=O)N[C@@H](CC(N)=O)C(=O)N[C@@H](Cc1ccccc1)C(=O)N[C@@H](CCCCN)C(=O)N[C@H](C(=O)N[C@@H](CCC(=O)O)C(=O)N[C@@H](CCC(=O)O)C(=O)N[C@@H](Cc1ccc(O)cc1)C(=O)O)[C@@H](C)O [Peptide 70, T F F Y G G S R G K R N N F K T E E Y] | detected in the lower side of the chambers | –
2 | – | – | – | – | C[C@@H](O)[C@H](NC(=O)[C@H](CCCCN)NC(=O)[C@H](Cc1ccccc1)NC(=O)[C@H](CC(N)=O)NC(=O)[C@H](CC(N)=O)NC(=O)[C@H](CCCNC(=N)N)NC(=O)[C@H](CCCCN)NC(=O)CNC(=O)[C@H](CCCNC(=N)N)NC(=O)[C@H](CS)NC(=O)[C@H](CS)NC(=O)CNC(=O)[C@H](Cc1ccc(O)cc1)NC(=O)[C@H](Cc1ccccc1)NC(=O)[C@H](Cc1ccccc1)NC(=O)[C@@H](NC(=O)[C@@H](N)CS)[C@@H](C)O)C(=O)N[C@@H](CCC(=O)O)C(=O)N[C@@H](CCC(=O)O)C(=O)N[C@@H](Cc1ccc(O)cc1)C(=O)O [Peptide 71, CTFFYGCCRGKRNNFKTEEY] (H-CTFFYGCCRGKRNNFKTEEY-OH; N-terminus and C-terminus assumed) | detected in the lower side of the chambers | Ratio −cells/initial [2]: 0.072; Ratio +cells/−cells ([2]; [125I]-peptide in bottom chamber of filters covered with vs without endothelial cells): 0.37; Ratio +cells/initial [2, 4]: 0.027
3 | – | – | – | – | C[C@@H](O)[C@H](N)C(=O)N[C@@H](Cc1ccccc1)C(=O)N[C@@H](Cc1ccccc1)C(=O)N[C@@H](Cc1ccc(O)cc1)C(=O)NCC(=O)NCC(=O)N[C@@H](CS)C(=O)N[C@@H](CCCNC(=N)N)C(=O)NCC(=O)N[C@@H](CCCCN)C(=O)N[C@@H](CCCNC(=N)N)C(=O)N[C@@H](CC(N)=O)C(=O)N[C@@H](CC(N)=O)C(=O)N[C@@H](Cc1ccccc1)C(=O)N[C@@H](CCCCN)C(=O)N[C@H](C(=O)N[C@@H](CCC(=O)O)C(=O)N[C@@H](CCC(=O)O)C(=O)N[C@@H](Cc1ccc(O)cc1)C(=O)N[C@@H](CS)C(=O)O)[C@@H](C)O [Peptide 72, TFFYGGCRGKRNNFKTEEYC] (H-TFFYGGCRGKRNNFKTEEYC-OH; N-terminus and C-terminus assumed) | detected in the lower side of the chambers | –
4 | – | – | – | – | C[C@@H](O)[C@H](NC(=O)[C@H](CCCCN)NC(=O)[C@H](Cc1ccccc1)NC(=O)[C@H](CC(N)=O)NC(=O)[C@H](CC(N)=O)NC(=O)[C@H](CCCNC(=N)N)NC(=O)[C@H](CCCCN)NC(=O)CNC(=O)[C@H](CCCNC(=N)N)NC(=O)[C@H](CS)NC(=O)[C@H](CO)NC(=O)CNC(=O)[C@H](Cc1ccc(O)cc1)NC(=O)[C@H](Cc1ccccc1)NC(=O)[C@H](Cc1ccccc1)NC(=O)[C@@H](NC(=O)[C@@H](N)CS)[C@@H](C)O)C(=O)N[C@@H](CCC(=O)O)C(=O)N[C@@H](CCC(=O)O)C(=O)N[C@@H](Cc1ccc(O)cc1)C(=O)O [Peptide 73, CTFFYGSCRGKRNNFKTEEY] (H-CTFFYGSCRGKRNNFKTEEY-OH; N-terminus and C-terminus assumed) | detected in the lower side of the chambers | –
5 | – | – | – | – | CC(=O)O[C@H]1C(=O)[C@@]2(C)[C@H]([C@H](OC(=O)c3ccccc3)[C@]3(O)C[C@H](OC(=O)[C@H](O)[C@@H](NC(=O)c4ccccc4)c4ccccc4)C(C)=C1C3(C)C)[C@]1(OC(C)=O)CO[C@@H]1C[C@@H]2O [paclitaxel] | – | Mouse survival (brain tumor model): unable to increase mouse survival
6 | – | – | – | – | PFFYGGCRGKRNNFKTEEY [Peptide 75, P F F Y G G C R G K R N N F K T E E Y] | detected in the lower side of the chambers | –
7 | highest Pe | 76 | 88 | 87 | RFKYGGCLGNKNNFLRLKY [Peptide 90, R F K Y G G C L G N K N N F L R L K Y] | detected in the lower side of the chambers | Volume of distribution, Parenchyma (mouse brain): 11 ml/100 g; Volume of distribution, Parenchyma % (mouse brain): 12%
8 | highest Pe | 217 | 73 | 312 | TFFYGGCRAKRNNFKRAKY-NH2 [Peptide 5, T F F Y G G C R A K R N N F K R A K Y] | detected in the lower side of the chambers | Ratio +cells/initial [2, 4]: 0.051
9 | highest Pe | 204 | 82 | 250 | TFFYGGCRGKKNNFKRAKY [Peptide 8, T F F Y G G C R G K K N N F K R A K Y] | detected in the lower side of the chambers | Volume of distribution, Parenchyma (mouse brain): 46 ml/100 g; Volume of distribution, Parenchyma % (mouse brain): 18%
10 | highest Pe | 13 | 34 | 38 | TFFYGGCRGKRNNFKTEEY-NH2 [Peptide 67, T F F Y G G C R G K R N N F K T E E Y] | detected in the lower side of the chambers | –
11 | highest Pe | 181 | 90 | 198 | TFFYGGCRGKRNNFKTKRY [Peptide 78, T F F Y G G C R G K R N N F K T K R Y] | detected in the lower side of the chambers | Volume of distribution, Parenchyma (mouse brain): 16 ml/100 g; Volume of distribution, Parenchyma % (mouse brain): 10%
12 | – | – | – | – | TFFYGGCRGNRNNFLTAEY [Peptide 45, T F F Y G G C R G N R N N F L T A E Y] | detected in the lower side of the chambers | –
13 | – | – | – | – | TFFYGGKRGKRNNFKRAKY [Peptide 82, T F F Y G G K R G K R N N F K R A K Y] | detected in the lower side of the chambers | –
14 | – | – | – | – | TFFYGGKRGKRNNFKREKY [Peptide 81, T F F Y G G K R G K R N N F K R E K Y] | detected in the lower side of the chambers | –
15 | highest Pe | 52 | 74 | 70 | TFFYGGKRGKRNNFKTAEY [Peptide 79, T F F Y G G K R G K R N N F K T A E Y] | detected in the lower side of the chambers | Volume of distribution, Parenchyma (mouse brain): 18 ml/100 g; Volume of distribution, Parenchyma % (mouse brain): 26%
16 | – | – | – | – | TFFYGGKRGKRNNFKTEEY [Peptide 77, T F F Y G G K R G K R N N F K T E E Y] | detected in the lower side of the chambers | –
17 | – | 1082 | 95 | 1141 | TFFYGGSRGNRNNFKTAKY [Peptide 25, T F F Y G G S R G N R N N F K T A K Y] | – | Volume of distribution, Parenchyma (mouse brain): 60 ml/100 g; Volume of distribution, Parenchyma % (mouse brain): 5%

Row | Compound | Permeability coefficient (Pe) [3] | Volume of distribution, Capillaries (mouse brain) [ml/100 g] | Volume of distribution, Capillaries % (mouse brain) [%] | Volume of distribution, Homogenate (mouse brain) [ml/100 g] | Peptide detected in the lower side of the chambers by Coomassie blue staining [1] | further results
18 | R F K Y G G C L G N K N N Y L R L K Y (RFKYGGCLGNKNNYLRLKY-NH2) [Peptide 91] | highest Pe | 24 | 59 | 47 | detected in the lower side of the chambers | Ratio +cells/initial [2]: 0.158; Ratio −cells/initial [2]: 0.406
19 | T F F Y G G C R G K R N N F K T K E Y (TFFYGGCRGKRNNFKTKEY-NH2) [Peptide 76] | highest Pe | 16 | 40 | 40 | detected in the lower side of the chambers | Ratio +cells/initial [2]: 0.084; Ratio −cells/initial [2]: 0.222
